Source: PubChem BioAssay AID1645848
In brackets after ≈: the same amount, converted by molar mass.

conditions: buffer; pH 7.4; 6.0 h; 150.0 µM

Compound	solubility kinetic
Cc1noc(C)c1-c1ccc2ncnc(NCc3ccc4[nH]ccc4c3)c2c1	< 1 µg/mL
O=C(CCCN1CCC2(CC1)C(=O)N(Cc1cccc(F)c1)CN2c1ccccc1)c1ccc(F)cc1	4.23 µg/mL (≈ 8.41 µM)
Cc1ccccc1NC(=O)Nc1cccs1	> 34 µg/mL
COc1ccc(NC(=O)c2ccc[nH]2)cc1S(=O)(=O)Nc1ccc(Br)cc1	< 1 µg/mL
N#CC1(c2ccc(NC(=O)c3cccnc3NCc3ccncc3)cc2)CCCC1	< 1 µg/mL
O=S(=O)(Nc1cccc2cccnc12)c1ccc(NCc2ccc(Br)cc2O)cc1	< 1 µg/mL
CCn1c(C(=O)N2CCCC(C(=O)NCCc3ccc(C)cc3)C2)cc2sccc21 (stereo not drawn)	17.1 µg/mL (≈ 40.3 µM)
CC(C)Oc1ccc(-c2csc(N3CCC(C(N)=O)CC3)n2)cc1	11.7 µg/mL (≈ 33.8 µM)
O=C(c1nc(-c2cccnc2)c2ccccn12)N1CCN(c2ncccn2)CC1	9.57 µg/mL (≈ 24.8 µM)
Nc1ncnc2c1c(-c1cnc3[nH]ccc3c1)nn2C1CCCC1	> 47 µg/mL
Cc1ccccc1S(=O)(=O)Nc1cnccc1C(=O)Nc1nc(-c2ccccc2)cs1	49.9 µg/mL (≈ 111 µM)
CCOc1ccc(CCNC(=O)c2cc3ccccc3n2Cc2cc(C)cc(C)n2)cc1OCC	< 1 µg/mL
O=C(O)c1ccnc2cc(C(OCC3CCC(F)(F)CC3)c3ccccc3Cl)[nH]c12 (stereo not drawn)	> 64 µg/mL
COc1cccc(C(=O)Nc2cccc(OCc3cc(=O)n4cccc(C)c4n3)c2)c1	< 1 µg/mL
CCc1cccc(NC(=O)C(Cc2ccccc2)NS(=O)(=O)c2cccs2)c1 (stereo not drawn)	< 1 µg/mL
Cc1ccc(C)n1-c1cccc(C(=O)O)c1	> 32 µg/mL
Cc1ccccc1C(=O)N1CCc2cc(-c3nc(NC(=O)Cc4ccc5c(c4)OCCO5)sc3C)ccc21	< 1 µg/mL
Cc1cccc(C)c1Nc1c(-c2ccccn2)nc2ccc(Cl)cn12	< 1 µg/mL
COc1ccccc1-c1cc2c(ccn2C)c(C(=O)NCC2CCN(C)C(=O)C2)n1 (stereo not drawn)	> 90 µg/mL
CCN(CC)S(=O)(=O)c1ccc(N2CCCC2)c(NS(=O)(=O)c2ccccc2)c1	< 1 µg/mL
O=C(O)Cc1ccc2oc(-c3ccc(NC(=O)/C=C/c4ccc(Br)cc4)c(F)c3)nc2c1	< 1 µg/mL
CCN1CCc2c(sc(NC(=O)Nc3ccc(Cl)c(Cl)c3)c2C(N)=O)C1	< 1 µg/mL
Cc1ccnc(NC(=S)N2CCN(c3ccccc3C(F)(F)F)CC2)c1	8.07 µg/mL (≈ 21.2 µM)
CCC1=Nc2cc(C(=O)NC3CCCC3)ccc2Sc2ccc(Cl)cc21	< 1 µg/mL
Cc1ccc([S+](=O)([O-])n2cc(Cc3ccc(-c4ccccc4)cc3)c3ccccc32)cc1	< 1 µg/mL
Cc1ccc(S(=O)(=O)Nc2ccccc2C(=O)Nc2ccc(-c3ccccc3)cn2)cc1	< 1 µg/mL
COc1ccc(-c2nc3ccccc3c(=O)n2Cc2ccco2)cc1COc1ccc(NC(C)=O)cc1	2.35 µg/mL (≈ 4.74 µM)
O=C(Nc1ccc(N2CCN(C(=O)c3ccccc3F)CC2)cc1)c1cncc(Br)c1	3.75 µg/mL (≈ 7.77 µM)
